Organism: Rattus norvegicus
Test: DrugMatrix - Regimen: Daily Repeat
Format: toxicity, organism-based, Sprague-Dawley
Design: regimen Daily Repeat, gender Male, age 6-8 weeks
Settings: in vivo, po, route oral GAVAGE, […]; for URIC ACID / ALANINE AMINOTRANSFERASE / ALKALINE PHOSPHATASE / ASPARTATE AMINOTRANSFERASE / BLOOD UREA NITROGEN / CARBON DIOXIDE / CHLORIDE / CHOLESTEROL / CREATINE PHOSPHOKINASE / CREATININE / GLUCOSE / LACTATE DEHYDROGENASE / LIPASE / PHOSPHORUS / POTASSIUM / SODIUM / TOTAL BILIRUBIN / TOTAL PROTEIN: tissue Plasma; for ABSOLUTE BASOPHIL / ABSOLUTE EOSINOPHIL / ABSOLUTE LYMPHOCYTE / ABSOLUTE MONOCYTE / ABSOLUTE SEGMENTED NEUTROPHIL / BASOPHIL / EOSINOPHIL / ERYTHROCYTE COUNT / HEMATOCRIT / HEMOGLOBIN / LEUKOCYTE COUNT / LYMPHOCYTE / MEAN CORPUSCULAR HEMOGLOBIN / MEAN CORPUSCULAR HEMOGLOBIN CONCENTRATION / MEAN CORPUSCULAR VOLUME / MONOCYTE / NEUTROPHIL / NUCLEATED RED BLOOD CELLS / PLATELET COUNT: tissue Blood
[1] = 10 mg/kg, 120 h, dose level Low, time 5 day
[2] = 1100 mg/kg, 72 h, dose level High, time 3 day
[3] = 1100 mg/kg, 120 h, dose level High, time 5 day

For `CCOC(=O)C1=C(C)NC(C)=C(C(=O)OC)C1c1cccc([N+](=O)[O-])c1` (stereo unspecified) [NITRENDIPINE], the “URIC ACID” value (10 mg/kg, 72 h, dose level Low, time 3 day) was 0.7 mg/dL, the “ABSOLUTE BASOPHIL” value [1] was 0 CELLS/uL and the “ABSOLUTE EOSINOPHIL” value [1] was 0 CELLS/uL. For the same compound, the “ABSOLUTE LYMPHOCYTE” value [1] was 10446 CELLS/uL, the “ABSOLUTE MONOCYTE” value [1] was 116 CELLS/uL and the “ABSOLUTE SEGMENTED NEUTROPHIL” value [1] was 1038 CELLS/uL. The BASOPHIL [1] was 0%, the EOSINOPHIL [1] was 0% and the “ERYTHROCYTE COUNT” value [1] was 5.06 x10E6/uL. The HEMATOCRIT [1] was 32.77%, the HEMOGLOBIN [1] was 12.73 G/DL and the “LEUKOCYTE COUNT” value [1] was 11.6 x10E3/uL. The LYMPHOCYTE [1] was 90%, the “MEAN CORPUSCULAR HEMOGLOBIN” value [1] was 25.2 pg and the “MEAN CORPUSCULAR HEMOGLOBIN CONCENTRATION” value [1] was 38.87 G/DL. The “MEAN CORPUSCULAR VOLUME” value [1] was 64.8 fL, the MONOCYTE [1] was 1% and the NEUTROPHIL [1] was 9%. The “NUCLEATED RED BLOOD CELLS” value [1] was 0 /100WBC, the “PLATELET COUNT” value [1] was 1057 x10E3/uL and the “ALANINE AMINOTRANSFERASE” value [1] was 72 u/L. For the same compound, the “ALKALINE PHOSPHATASE” value [1] was 422.33 u/L, the “ASPARTATE AMINOTRANSFERASE” value [1] was 98 u/L and the “BLOOD UREA NITROGEN” value [1] was 15 mg/dL. The “CARBON DIOXIDE” value [1] was 32.33 mmol/L, the CHLORIDE [1] was 101 MEQ/L and the CHOLESTEROL [1] was 70.67 mg/dL. For the same compound, the “CREATINE PHOSPHOKINASE” value [1] was 376.67 u/L, the CREATININE [1] was 0.17 mg/dL and the GLUCOSE [1] was 143 mg/dL. For the same compound, the “LACTATE DEHYDROGENASE” value [1] was 166.67 u/L, the LIPASE [1] was 9.67 u/L and the PHOSPHORUS [1] was 10.6 mg/dL. For the same compound, the POTASSIUM [1] was 5.57 MEQ/L, the SODIUM [1] was 144.07 MEQ/L and the “TOTAL BILIRUBIN” value [1] was 0.23 mg/dL. For the same compound, the “TOTAL PROTEIN” value [1] was 6.03 G/DL, the “URIC ACID” value [1] was 0.53 mg/dL and the “ABSOLUTE BASOPHIL” value [2] was 0 CELLS/uL. For the same compound, the “ABSOLUTE EOSINOPHIL” value [2] was 21.67 CELLS/uL, the “ABSOLUTE LYMPHOCYTE” value [2] was 8591 CELLS/uL and the “ABSOLUTE MONOCYTE” value [2] was 68 CELLS/uL. The “ABSOLUTE SEGMENTED NEUTROPHIL” value [2] was 719.33 CELLS/uL, the BASOPHIL [2] was 0% and the EOSINOPHIL [2] was 0.33%. The “ERYTHROCYTE COUNT” value [2] was 5.96 x10E6/uL, the HEMATOCRIT [2] was 36.87% and the HEMOGLOBIN [2] was 14.27 G/DL. For the same compound, the “LEUKOCYTE COUNT” value [2] was 9.4 x10E3/uL, the LYMPHOCYTE [2] was 91% and the “MEAN CORPUSCULAR HEMOGLOBIN” value [2] was 23.93 pg. For the same compound, the “MEAN CORPUSCULAR VOLUME” value [2] was 61.87 fL, the MONOCYTE [2] was 0.67% and the NEUTROPHIL [2] was 8%. For the same compound, the “NUCLEATED RED BLOOD CELLS” value [2] was 0 /100WBC, the “PLATELET COUNT” value [2] was 1329.67 x10E3/uL and the “ALANINE AMINOTRANSFERASE” value [2] was 96.67 u/L. For the same compound, the “ALKALINE PHOSPHATASE” value [2] was 346 u/L, the “ASPARTATE AMINOTRANSFERASE” value [2] was 88.67 u/L and the “BLOOD UREA NITROGEN” value [2] was 13.33 mg/dL. For the same compound, the “CARBON DIOXIDE” value [2] was 30 mmol/L, the CHLORIDE [2] was 103.33 MEQ/L and the CHOLESTEROL [2] was 57.33 mg/dL. The “CREATINE PHOSPHOKINASE” value [2] was 323.33 u/L, the CREATININE [2] was 0.14 mg/dL and the GLUCOSE [2] was 160 mg/dL. For the same compound, the “LACTATE DEHYDROGENASE” value [2] was 142.67 u/L, the LIPASE [2] was 9.67 u/L and the PHOSPHORUS [2] was 9.8 mg/dL. The POTASSIUM [2] was 4.65 MEQ/L, the SODIUM [2] was 145.2 MEQ/L and the “TOTAL BILIRUBIN” value [2] was 0.2 mg/dL. For the same compound, the “TOTAL PROTEIN” value [2] was 5.2 G/DL, the “URIC ACID” value [2] was 0.4 mg/dL and the “ABSOLUTE BASOPHIL” value [3] was 0 CELLS/uL. The “ABSOLUTE EOSINOPHIL” value [3] was 24.33 CELLS/uL, the “ABSOLUTE LYMPHOCYTE” value [3] was 5730.33 CELLS/uL and the “ABSOLUTE MONOCYTE” value [3] was 63.33 CELLS/uL. The “ABSOLUTE SEGMENTED NEUTROPHIL” value [3] was 515.33 CELLS/uL, the BASOPHIL [3] was 0% and the EOSINOPHIL [3] was 0.33%. For the same compound, the “ERYTHROCYTE COUNT” value [3] was 6.09 x10E6/uL, the HEMATOCRIT [3] was 37.57% and the HEMOGLOBIN [3] was 14.23 G/DL. The “LEUKOCYTE COUNT” value [3] was 6.33 x10E3/uL, the LYMPHOCYTE [3] was 90.67% and the “MEAN CORPUSCULAR HEMOGLOBIN” value [3] was 23.4 pg. The “MEAN CORPUSCULAR HEMOGLOBIN CONCENTRATION” value [3] was 37.87 G/DL, the “MEAN CORPUSCULAR VOLUME” value [3] was 61.7 fL and the MONOCYTE [3] was 1%. For the same compound, the NEUTROPHIL [3] was 8%, the “NUCLEATED RED BLOOD CELLS” value [3] was 0 /100WBC and the “PLATELET COUNT” value [3] was 1353.67 x10E3/uL. The “ALANINE AMINOTRANSFERASE” value [3] was 65.67 u/L, the “ALKALINE PHOSPHATASE” value [3] was 214.33 u/L and the “ASPARTATE AMINOTRANSFERASE” value [3] was 85.67 u/L. The “BLOOD UREA NITROGEN” value [3] was 11.67 mg/dL, the “CARBON DIOXIDE” value [3] was 29 mmol/L and the CHLORIDE [3] was 102.67 MEQ/L. For the same compound, the CHOLESTEROL [3] was 58.33 mg/dL, the “CREATINE PHOSPHOKINASE” value [3] was 328.33 u/L and the CREATININE [3] was 0.15 mg/dL. For the same compound, the GLUCOSE [3] was 133.67 mg/dL, the “LACTATE DEHYDROGENASE” value [3] was 156.33 u/L and the LIPASE [3] was 11.67 u/L. For the same compound, the PHOSPHORUS [3] was 8.93 mg/dL, the POTASSIUM [3] was 4.8 MEQ/L and the SODIUM [3] was 147.07 MEQ/L. For the same compound, the “TOTAL BILIRUBIN” value [3] was 0.2 mg/dL, the “TOTAL PROTEIN” value [3] was 5.4 G/DL and the “URIC ACID” value [3] was 0.47 mg/dL.
